# Source: patent publication US8039505B2, “Compounds for modulating T-cells” (University of Utah Research Foundation, priority 2007, dated 2011)
# Entries after “also recorded” stand apart in the source; their conditions may differ.
# Legend:
# [1] = Complete blood count (CBC) evaluation in mice; assay type: in vivo, male Swiss Albino mouse; details: mouse, 48 h after dosing
# Procedure: The pharmacokinetics of 1H-indole-3-carbaldehyde quinolin-8-ylhydrazone (Compound C3) was evaluated following intravenous (3 mg/kg) and oral (15 mg/kg) solution administration of 1H-indole-3-carbaldehyde quinolin-8-ylhydrazone in male Swiss Albino mouse. The effect of the Test Item, 1H-indole-3-carbaldehyde quinolin-8-ylhydrazone on complete blood count (CBC) was also evaluated. Pharmacokinetic phase consisted of two groups, Group 1 and Group 2. Animals in Group 1 were given intravenous bolus dose in a vehicle containing 5% N,N-dimethylacetamide, 5% CREMOPHOR™ EL and 90% Dextrose solution (5% w/v) and those in Group 2 were given oral solution dose in a vehicle, the composition of which was same as that of intravenous formulation. In addition, the effect of Test Item on complete blood count was evaluated following intravenous and oral dose administration along with its vehicle controls. A total of four groups were used each with 6 mice.
# From the pharmacokinetic group, predose samples were collected from 3 animals in each group. Following dose administration terminal blood samples were collected at each of the following time points (in triplicate): 0.083 (only for intravenous), 0.25, 0.5, 1, 2, 4, 8, 12 and 24 hours. At each time point, approximately 500 μL of whole blood was withdrawn from the retro orbital sinus and collected in labeled tubes containing dipotassium EDTA as anticoagulant (20 μL of 200 mM K2 EDTA solution per mL of blood). Plasma was separated by centrifuging the whole blood at about 2500 g for 10 minutes at 4° C. within 1 h of sample collection. Separated plasma was stored below minus 50° C. until bioanalysis. A sensitive LC-MS/MS method was used for the quantitation of 1H-indole-3-carbaldehyde quinolin-8-ylhydrazone. The lower limit of quantitation was 1.04 ng/mL. For CBC evaluation, approximately 500 μL of blood was collected in labeled tubes containing dipotassium EDTA as anticoagulant (10 […]/mL of blood) after 48 h of dose administration from all animals.
# A total of 24 mice were divided in to four groups as follows: […]
# human T-ALL line Jurkat = assay: MTT cell viability, Jurkat; assay type: cell-based; details: 48 hours
# Procedure: FIG. 3 is a graph showing viability of human T-ALL lines incubated with individual compounds. Specifically, two human ALL lines (B-ALL: RS4; 11 and T-ALL: Jurkat) were incubated on day 0 with serum or with 2.5 μM of the indicated compounds (except for aphidicolin 1 μM and cyclosporine 1.5 μM). 48 hours later, cells were tested for viability by MTT test. Results from the mean of 3 to 4 experiments carried out in triplicate (individual dots) and the mean of all experiments (horizontal bar) are indicated. Results are shown for compounds without a cell cycle effect (B). Viability of untreated cells was arbitrarily set at 1.0.
# Cell culture experiments: Cells were incubated at 37° C. in 75 mL flasks in RPMI containing 10% FBS, 5 mL Penicillin/Streptomycin (100×) in a total volume of […]. Cells were counted using a hemocytometer, and 25,000 cells were plated in each well of a 96-well plate. Compounds and controls were added and cells were harvested after a 48 hr incubation period.
# To assess effects of compounds, cell viability was measured. […] After crystal solubilization with DMSO a blue color (that is proportional to the amount of crystal formed) can be measured. […] Final optical density (OD) obtained from formazan formation was calculated OD=L1-L2 (background). […]
# [2] = test system: cell cycle in zebrafish embryos; assay: Cell cycle profiles in zebrafish embryos (propidium iodide, flow cytometry); assay type: in vivo; details: zebrafish embryos incubated from 4 hours post fertilization overnight, DNA content by flow cytometry
# Procedure: FIG. 2 is a group of cell cycle profiles of active compounds tested in 24 hour zebrafish embryos. Specifically, embryos incubated with E3 fishwater (panel A), hydroxyurea (panel B), compound C4 (panel C), and compound C3 (panel D) are shown. After overnight incubation, single cell solution of embryos was prepared and incubated with propidium iodide. Samples were then subjected to flow cytometry to determine DNA content (X axis). Small arrowheads below the X-axis are placed beneath the diploid (G1) n=2 peak, and the tetraploid (G2/M) n=4 peaks. Cells between these two peaks are in S phase. Cells to the left of the G1 peak (sub G1 peak) have lost chromosomes (n<2), and are presumably dying (indicated as % debris in the right hand legend of each panel). Relative numbers of cells (Y-axis) in the different phases of the cell cycle are given on the right side of each panel.
# All of these compounds were tested for effects on the cell cycle in zebrafish embryos. Zebrafish embryos were incubated at 4 hours post fertilization with compounds or controls. After overnight incubation in compounds, single cell solution of embryos was prepared and incubated with propidium iodide. Samples were then subjected to flow cytometry to determine DNA content. […] Examples are depicted in FIG. 2.
# In FIG. 2, embryos incubated with (A) E3 fishwater, (B) hydroxyurea, (C) compound C4, and (D) C3 are shown. Diploid (G1, n=2) and tetraploid (G2/M, n=4) peaks are identified on the X-axis. Small arrowheads below the X-axis are placed beneath the dipoid (G1) n=2 peak, and the tetraploid (G2/M) n=4 peaks. Cells between these two peaks are in S phase. Cells to the left of the G1 peak (sub G1 peak) have lost chromosomes (n<2) and are presumably dying (indicated as % debris in the right hand legend of each panel). Relative numbers of cells (Y axis) in the different phases of the cell cycle are given on the right side of each panel.
compound,measurement,setting,value
"C(=NNc1cccc2cccnc12)c1c[nH]c2ccccc12 [Compound C3, 1H-indole-3-carbaldehyde quinolin-8-ylhydrazone]",Other hematological parameters vs vehicle control,[1]; intravenous 3 mg/kg and oral 15 mg/kg,no effect
same,White blood cell count vs vehicle control,[1]; intravenous 3 mg/kg,lower
same,Platelet count vs vehicle control,[1]; oral 15 mg/kg,lower
same,"Response of T cell leukemia line (viability, MTT)","human T-ALL line Jurkat; 2.5 μM, FIG. 3",responded similarly
same,Effective concentration killing Jurkat in vitro,human T-ALL line Jurkat; MTT,2.5 µM
same,Effect on the cell cycle,[2],lack of cell cycle effects
same,Effect on the cell cycle,[2]; listed as 3,did not have any appreciable effect on the cell cycle; also recorded: does not affect the cell cycle
